Measurements as given in patent publication US20210352900A1, “Method for Controlling PPO Resistant Weeds” (BASF SE, priority 2016, published 2021).

Columns and labels:
[1] = test system: Amaranthus tamariscinus (AMATA, common waterhemp), sensitive biotype (w.1); assay: Greenhouse herbicidal activity test, sensitive common waterhemp (w.1); type: in vivo; conditions: for Weed control (%) w.1: sensitive biotype, scale 0 (no damage) to 100 (complete destruction)
[2] = test system: Amaranthus tamariscinus (AMATA, common waterhemp), PPO resistant biotype 1 (w.2); assay: Greenhouse herbicidal activity test, PPO resistant common waterhemp biotype 1 (w.2); type: in vivo; conditions: for activity on / control of resistant weeds (w.2), in words: azafenidin: in comparison to sensitive biotypes; for Weed control (%) w.2: PPO resistant biotype 1, scale 0 to 100

CCc1ccc(COc2ccc(-n3c(=O)cc(C(F)(F)F)n(C)c3=O)cc2)c(OC(C)C(=O)OC)c1 (centres unmarked) [(I).1, benzfendizone]
activity on sensitive weeds (w.1), in words [1]: very good activity | Weed control (%) w.1 ([1]; use rate 2 g/ha): 94% | Weed control (%) w.1 ([1]; use rate 4 g/ha): 100% | activity on / control of resistant weeds (w.2), in words [2]: very good activity | Weed control (%) w.2 ([2]; use rate 2 g/ha): 89% | Weed control (%) w.2 ([2]; use rate 4 g/ha): 92%

C#CCOc1cc(-n2nc3n(c2=O)CCCC3)c(Cl)cc1Cl [azafenidin, reference compound]
Weed control (%) w.1 ([1]; use rate 2 g/ha): 95% | Weed control (%) w.1 ([1]; use rate 4 g/ha): 98% | activity on / control of resistant weeds (w.2), in words [2]: much weaker control | Weed control (%) w.2 ([2]; use rate 2 g/ha): 67% | Weed control (%) w.2 ([2]; use rate 4 g/ha): 73%
